Reference: patent publication US8404710B2, “Phosphodiesterase 10A inhibitor” (Kyorin Pharmaceutical Co., Ltd., priority 2002, dated 2013)

Columns and labels:
PDE10A = PDE10A (Homo sapiens, UniProt Q9Y233); details: human PDE10A gene product; cited from earlier work
PDE10A1 = target: T1, PDE10A1 (Homo sapiens, UniProt Q9Y233); assay: Inhibition of recombinant human PDE10A1 by ibudilast; assay type: biochemical
T1 construct: cDNA of full length PDEs, specifically, PDE1A3, PDE2A3, PDE3A, PDE3B, PDE4A4, PDE4B2, PDE4C2, PDE4D3, PDE5A1, PDE5A2, PDE5A3, PDE7A2, PDE8A1, PDE9A2, PDE10A1; made in house; host or cells: Sf9 insect cells (baculovirus)
T1 sequence (Q9Y233 1-779 isoform Q9Y233-1): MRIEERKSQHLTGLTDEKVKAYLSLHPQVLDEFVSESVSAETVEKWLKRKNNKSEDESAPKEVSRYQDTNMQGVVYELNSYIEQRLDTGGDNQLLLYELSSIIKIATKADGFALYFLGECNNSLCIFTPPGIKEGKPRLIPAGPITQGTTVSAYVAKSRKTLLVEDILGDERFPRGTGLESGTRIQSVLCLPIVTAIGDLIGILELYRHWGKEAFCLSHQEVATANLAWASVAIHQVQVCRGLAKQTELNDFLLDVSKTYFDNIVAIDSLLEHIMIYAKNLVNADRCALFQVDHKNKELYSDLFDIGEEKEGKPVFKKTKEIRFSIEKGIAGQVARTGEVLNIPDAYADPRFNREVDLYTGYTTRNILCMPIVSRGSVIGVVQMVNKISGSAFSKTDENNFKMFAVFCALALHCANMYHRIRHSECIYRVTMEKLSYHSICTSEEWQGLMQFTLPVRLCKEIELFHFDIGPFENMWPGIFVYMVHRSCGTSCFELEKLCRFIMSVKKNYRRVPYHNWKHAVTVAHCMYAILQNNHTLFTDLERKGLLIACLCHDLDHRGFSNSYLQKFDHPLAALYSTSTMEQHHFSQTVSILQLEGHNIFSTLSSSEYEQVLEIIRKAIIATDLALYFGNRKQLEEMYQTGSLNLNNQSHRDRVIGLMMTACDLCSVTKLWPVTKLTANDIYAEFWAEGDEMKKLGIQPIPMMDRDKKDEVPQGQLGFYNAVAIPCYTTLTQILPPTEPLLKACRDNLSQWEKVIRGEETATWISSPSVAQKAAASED

PDE11A1 = target: T2, PDE11A1 (Homo sapiens, UniProt Q9HCR9); assay: Inhibition of recombinant human PDE11A1 by ibudilast; assay type: biochemical
T2 construct: cDNA of full length PDEs, specifically, PDE1A3, PDE2A3, PDE3A, PDE3B, PDE4A4, PDE4B2, PDE4C2, PDE4D3, PDE5A1, PDE5A2, PDE5A3, PDE7A2, PDE8A1, PDE9A2, PDE10A1, and PDE11A1; made in house; host or cells: Sf9 insect cells (baculovirus)
T2 sequence (Q9HCR9 445-933): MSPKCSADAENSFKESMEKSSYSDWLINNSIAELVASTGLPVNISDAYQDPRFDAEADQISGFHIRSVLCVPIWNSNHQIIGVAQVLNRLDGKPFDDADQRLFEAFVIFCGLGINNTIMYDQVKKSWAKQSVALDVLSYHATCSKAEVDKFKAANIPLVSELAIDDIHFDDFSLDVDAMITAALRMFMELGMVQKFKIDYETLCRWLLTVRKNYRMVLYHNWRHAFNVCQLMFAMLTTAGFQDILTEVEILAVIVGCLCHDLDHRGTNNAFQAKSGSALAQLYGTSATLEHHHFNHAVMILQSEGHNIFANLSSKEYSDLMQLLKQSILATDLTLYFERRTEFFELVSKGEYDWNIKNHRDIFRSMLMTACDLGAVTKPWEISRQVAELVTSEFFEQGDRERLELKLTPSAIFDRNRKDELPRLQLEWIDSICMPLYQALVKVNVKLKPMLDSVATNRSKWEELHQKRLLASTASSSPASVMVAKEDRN

PDE9A2 = target: T3, PDE9A2 (Homo sapiens, UniProt O76083); assay: Inhibition of recombinant human PDE9A2 by ibudilast; assay type: biochemical; details: PDE 9A2, substrate cGMP 0.2 μM
T3 construct: cDNA of full length PDEs, specifically, PDE1A3, PDE2A3, PDE3A, PDE3B, PDE4A4, PDE4B2, PDE4C2, PDE4D3, PDE5A1, PDE5A2, PDE5A3, PDE7A2, PDE8A1, PDE9A2; made in house; host or cells: Sf9 insect cells (baculovirus)
T3 sequence (O76083 1-533 isoform O76083-2): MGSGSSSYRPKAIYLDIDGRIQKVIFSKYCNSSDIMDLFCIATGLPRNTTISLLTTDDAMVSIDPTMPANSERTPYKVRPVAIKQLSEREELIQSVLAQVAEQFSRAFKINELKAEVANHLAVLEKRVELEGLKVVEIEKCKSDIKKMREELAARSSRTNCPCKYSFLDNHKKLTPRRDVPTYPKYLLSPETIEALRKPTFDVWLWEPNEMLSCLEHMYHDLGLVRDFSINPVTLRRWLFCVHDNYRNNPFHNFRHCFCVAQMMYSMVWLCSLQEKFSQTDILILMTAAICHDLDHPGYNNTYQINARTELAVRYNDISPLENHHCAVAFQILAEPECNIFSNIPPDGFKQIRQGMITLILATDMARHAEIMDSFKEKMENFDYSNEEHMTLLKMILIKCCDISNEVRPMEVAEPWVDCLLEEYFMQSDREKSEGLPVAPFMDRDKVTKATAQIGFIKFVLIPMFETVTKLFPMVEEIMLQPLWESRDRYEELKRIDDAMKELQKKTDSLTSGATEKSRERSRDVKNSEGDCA

PDE7A2 = target: T4, PDE7A2 (Homo sapiens, UniProt Q13946); assay: Inhibition of recombinant human PDE7A2 by ibudilast; assay type: biochemical; details: PDE 7A2, substrate cAMP 0.2 μM
T4 construct: cDNA of full length PDEs, specifically, PDE1A3, PDE2A3, PDE3A, PDE3B, PDE4A4, PDE4B2, PDE4C2, PDE4D3, PDE5A1, PDE5A2, PDE5A3, PDE7A2; made in house; host or cells: Sf9 insect cells (baculovirus)
T4 sequence (Q13946 1-456 isoform Q13946-2): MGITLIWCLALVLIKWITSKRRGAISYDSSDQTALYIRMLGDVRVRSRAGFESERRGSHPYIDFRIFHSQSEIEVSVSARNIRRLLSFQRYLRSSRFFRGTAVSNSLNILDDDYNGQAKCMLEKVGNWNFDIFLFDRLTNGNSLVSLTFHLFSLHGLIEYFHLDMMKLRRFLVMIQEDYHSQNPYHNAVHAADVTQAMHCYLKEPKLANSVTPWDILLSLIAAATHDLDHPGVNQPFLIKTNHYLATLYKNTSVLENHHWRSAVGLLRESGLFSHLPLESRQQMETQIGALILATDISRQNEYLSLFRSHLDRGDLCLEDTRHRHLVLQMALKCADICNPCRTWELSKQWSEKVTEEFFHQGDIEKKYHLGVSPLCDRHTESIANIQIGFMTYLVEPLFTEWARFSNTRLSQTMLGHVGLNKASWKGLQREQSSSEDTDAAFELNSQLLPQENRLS

PDE4A4 = PDE4A4 (Homo sapiens, UniProt P27815); assay: Inhibition of recombinant human PDE4A4 by ibudilast; assay type: biochemical; details: PDE 4A4, substrate cAMP 2 μM
PDE4A4, sequence (P27815 whole entry): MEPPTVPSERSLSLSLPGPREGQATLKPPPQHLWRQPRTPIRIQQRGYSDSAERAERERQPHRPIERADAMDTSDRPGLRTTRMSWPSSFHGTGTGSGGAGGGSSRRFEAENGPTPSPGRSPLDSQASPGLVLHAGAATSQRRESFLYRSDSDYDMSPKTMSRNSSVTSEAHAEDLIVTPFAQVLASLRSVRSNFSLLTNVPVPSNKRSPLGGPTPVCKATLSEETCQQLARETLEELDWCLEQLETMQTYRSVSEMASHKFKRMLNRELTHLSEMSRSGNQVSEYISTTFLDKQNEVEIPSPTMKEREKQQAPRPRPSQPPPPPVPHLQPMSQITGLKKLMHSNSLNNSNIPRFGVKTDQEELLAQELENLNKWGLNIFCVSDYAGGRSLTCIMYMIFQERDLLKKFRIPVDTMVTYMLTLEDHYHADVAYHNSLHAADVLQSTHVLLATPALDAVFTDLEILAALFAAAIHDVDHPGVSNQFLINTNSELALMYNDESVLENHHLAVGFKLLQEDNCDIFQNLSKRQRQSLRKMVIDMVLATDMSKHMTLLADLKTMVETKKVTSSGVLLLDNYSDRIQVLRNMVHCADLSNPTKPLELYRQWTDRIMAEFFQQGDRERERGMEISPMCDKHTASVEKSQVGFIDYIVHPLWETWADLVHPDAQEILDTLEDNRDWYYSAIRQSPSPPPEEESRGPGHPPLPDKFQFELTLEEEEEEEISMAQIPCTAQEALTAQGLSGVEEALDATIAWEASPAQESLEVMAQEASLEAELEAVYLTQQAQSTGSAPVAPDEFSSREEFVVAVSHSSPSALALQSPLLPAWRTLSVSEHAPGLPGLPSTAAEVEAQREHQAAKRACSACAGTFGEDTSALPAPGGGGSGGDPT

PDE8A1 = target: T5, PDE8A1 (Homo sapiens, UniProt O60658); assay: Inhibition of recombinant human PDE8A1 by ibudilast; assay type: biochemical; details: PDE 8A1, substrate cAMP 0.2 μM
T5 construct: cDNA of full length PDEs, specifically, PDE1A3, PDE2A3, PDE3A, PDE3B, PDE4A4, PDE4B2, PDE4C2, PDE4D3, PDE5A1, PDE5A2, PDE5A3, PDE7A2, PDE8A1; made in house; host or cells: Sf9 insect cells (baculovirus)

PDE4D3 = target: T6, PDE4D3 (Homo sapiens, UniProt Q08499); assay: Inhibition of recombinant human PDE4D3 by ibudilast; assay type: biochemical; details: PDE 4D3, substrate cAMP 2 μM
T6 construct: cDNA of full length PDEs, specifically, PDE1A3, PDE2A3, PDE3A, PDE3B, PDE4A4, PDE4B2, PDE4C2, PDE4D3; made in house; host or cells: Sf9 insect cells (baculovirus)

PDE3B = target: T7, PDE3B (Homo sapiens, UniProt Q13370); assay: Inhibition of recombinant human PDE3B by ibudilast (Sf9 cell suspension); assay type: biochemical; details: PDE 3B, substrate cAMP 2 μM
T7 construct: cDNA of full length PDEs, specifically, PDE1A3, PDE2A3, PDE3A, PDE3B; made in house; host or cells: Sf9 insect cells (baculovirus); unpurified cell suspension in RIPA buffer
T7 sequence (Q13370 whole entry): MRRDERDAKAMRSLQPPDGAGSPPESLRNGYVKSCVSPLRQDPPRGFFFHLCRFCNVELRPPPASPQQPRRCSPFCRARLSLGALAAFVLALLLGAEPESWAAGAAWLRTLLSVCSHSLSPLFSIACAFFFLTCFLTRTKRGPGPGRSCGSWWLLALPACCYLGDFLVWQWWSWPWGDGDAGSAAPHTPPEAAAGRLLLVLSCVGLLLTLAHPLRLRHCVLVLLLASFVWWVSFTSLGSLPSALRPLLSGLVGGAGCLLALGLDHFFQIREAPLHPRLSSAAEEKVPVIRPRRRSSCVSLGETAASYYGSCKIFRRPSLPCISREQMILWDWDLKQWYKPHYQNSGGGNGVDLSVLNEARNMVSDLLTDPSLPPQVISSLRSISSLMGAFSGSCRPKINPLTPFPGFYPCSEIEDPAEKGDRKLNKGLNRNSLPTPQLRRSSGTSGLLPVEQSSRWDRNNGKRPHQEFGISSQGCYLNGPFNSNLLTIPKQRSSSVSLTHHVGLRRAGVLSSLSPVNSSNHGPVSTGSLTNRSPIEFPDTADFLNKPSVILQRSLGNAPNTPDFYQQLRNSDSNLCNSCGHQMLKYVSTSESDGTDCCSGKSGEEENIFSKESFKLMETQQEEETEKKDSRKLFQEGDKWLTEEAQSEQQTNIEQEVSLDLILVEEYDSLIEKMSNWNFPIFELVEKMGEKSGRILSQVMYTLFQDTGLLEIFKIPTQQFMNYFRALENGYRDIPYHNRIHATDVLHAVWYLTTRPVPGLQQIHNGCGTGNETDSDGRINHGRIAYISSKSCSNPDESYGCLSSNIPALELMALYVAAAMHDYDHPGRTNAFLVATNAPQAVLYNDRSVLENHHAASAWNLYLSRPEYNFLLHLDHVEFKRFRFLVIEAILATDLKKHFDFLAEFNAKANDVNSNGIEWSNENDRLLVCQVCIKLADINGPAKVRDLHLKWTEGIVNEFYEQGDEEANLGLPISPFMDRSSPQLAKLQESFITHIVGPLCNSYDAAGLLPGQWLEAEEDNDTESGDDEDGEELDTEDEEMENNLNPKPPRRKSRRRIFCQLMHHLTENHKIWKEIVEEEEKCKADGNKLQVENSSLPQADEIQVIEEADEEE

PDE2A3 = target: T8, PDE2A3 (Homo sapiens, UniProt O00408); assay: Inhibition of recombinant human PDE2A3 by ibudilast; assay type: biochemical; details: PDE 2A3, substrate cAMP 2 μM
T8 construct: cDNA of full length PDEs, specifically, PDE1A3, PDE2A3; made in house; host or cells: Sf9 insect cells (baculovirus)

PDE1A3 = target: T9, PDE1A3 (Homo sapiens, UniProt P54750); assay: Inhibition of recombinant human PDE1A3 by ibudilast; assay type: biochemical
T9 construct: cDNA of full length PDEs, specifically, PDE1A3; made in house; host or cells: Sf9 insect cells (baculovirus)
T9 sequence (P54750 whole entry): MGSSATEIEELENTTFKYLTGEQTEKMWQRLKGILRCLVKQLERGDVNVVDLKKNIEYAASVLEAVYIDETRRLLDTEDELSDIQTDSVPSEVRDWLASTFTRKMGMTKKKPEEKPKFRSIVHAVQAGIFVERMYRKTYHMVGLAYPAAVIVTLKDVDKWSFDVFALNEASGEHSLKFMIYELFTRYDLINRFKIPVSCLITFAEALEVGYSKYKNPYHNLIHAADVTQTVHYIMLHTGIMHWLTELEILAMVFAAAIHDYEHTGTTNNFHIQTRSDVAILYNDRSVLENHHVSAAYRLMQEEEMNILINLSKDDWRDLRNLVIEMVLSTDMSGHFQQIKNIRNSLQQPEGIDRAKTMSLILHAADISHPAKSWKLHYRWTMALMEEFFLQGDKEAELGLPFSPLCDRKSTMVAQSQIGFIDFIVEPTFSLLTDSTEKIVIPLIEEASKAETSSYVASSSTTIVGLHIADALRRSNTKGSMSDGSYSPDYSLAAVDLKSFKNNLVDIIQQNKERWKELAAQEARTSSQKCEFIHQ

PDE4C2 = target: T10, PDE4C2 (Homo sapiens, UniProt Q08493); assay: Inhibition of recombinant human PDE4C2 by ibudilast; assay type: biochemical; details: PDE 4C2, substrate cAMP 2 μM
T10 construct: cDNA of full length PDEs, specifically, PDE1A3, PDE2A3, PDE3A, PDE3B, PDE4A4, PDE4B2, PDE4C2; made in house; host or cells: Sf9 insect cells (baculovirus)

For `OCCN(CCO)c1nc(N2CCCCC2)c2nc(N(CCO)CCO)nc(N3CCCCC3)c2n1` [dipyridamole], the “inhibition of PDE10A” value (PDE10A) is listed as “inhibited”.
With `CC(C)C(=O)c1c(C(C)C)nn2ccccc12` [ibudilast, 3-isobutyryl-2-isopropyl pyrazolo[1,5-a]pyridine] the IC50 (PDE10A1; PDE 10A1, substrate cAMP 0.2 μM) was 3 µM, the IC50 (PDE10A1; PDE 10A1, substrate cGMP 2 μM) was 1 µM and the “inhibition of PDE10A1 compared with other PDEs” value (PDE10A1; in vitro, recombinant human PDE) was “particularly strong inhibition”. The IC50 (PDE11A1; PDE 11A1, substrate cAMP 2 μM) was 17 µM, the IC50 (PDE11A1; PDE 11A1, substrate cGMP 0.2 μM) was 36 µM and the IC50 (PDE9A2) was > 400 µM. For the same compound, the IC50 (PDE7A2) was 115 µM, the IC50 (PDE4A4) was 6 µM and the IC50 (PDE8A1) was 49 µM. For the same compound, the IC50 (PDE4D3) was 6 µM, the IC50 (PDE3B) was 266 µM and the IC50 (PDE2A3) was 78 µM. For the same compound, the IC50 (PDE1A3; PDE 1A3, substrate cAMP 2 μM) was 40 µM, the IC50 (PDE1A3; PDE 1A3, substrate cGMP 2 μM) was 121 µM and the IC50 (PDE4C2) was 11 µM.
